{
  "source": "EPA's ToxValDB 9.5",
  "key": {"Gallus gallus": {"tested_on": "Gallus gallus", "details": "for LEL: subchronic, no effects"}, "Sus scrofa": {"tested_on": "Sus scrofa", "details": "subchronic, oral, diet, M/F"}, "Apis mellifera": {"tested_on": "Apis mellifera", "details": "acute, mortality"}, "[1]": {"details": "for NOAEL: subchronic"}, "Daphnia magna": {"tested_on": "Daphnia magna", "details": "acute; mortality"}, "Pontoscolex corethrurus": {"tested_on": "Pontoscolex corethrurus", "details": "acute; mortality"}, "Homo sapiens": {"tested_on": "Homo sapiens", "details": "clinical, oral; for LEL: no effects"}, "Canidae": {"tested_on": "Canidae", "details": "chronic; duration: 117 weeks; oral; diet; M/F; Beagle; clinical chemistry"}, "Oryctolagus sp.": {"tested_on": "Oryctolagus sp.", "details": "reproduction developmental; body weight"}, "Bovidae": {"tested_on": "Bovidae", "details": "subchronic; duration: 56 days; oral; diet; F; no effects"}},
  "note": "Several values for one entry are separate records, joined by “and”; a condition that tells them apart may be missing. Equal entries are not always repeated.",
  "data": [
    {"smiles": "C[Se]CCC(O)C(=O)O", "note": "(stereo unspecified) [Butanoic acid, 2-hydroxy-4-(methylseleno)-]", "values": [
      {"measurement": "LEL", "setting": "Gallus gallus; duration: 35 days, oral, diet, M/F", "result": 5, "unit": "mg/kg-day"},
      {"measurement": "LEL", "setting": "Gallus gallus; duration: 42 days, oral, diet, M/F", "result": 5, "unit": "mg/kg-day"},
      {"measurement": "LEL", "setting": "Meleagris sp.; subchronic, duration: 42 days, oral, feed, M/F, But big 6, no effects", "result": 5, "unit": "mg/kg"},
      {"measurement": "LEL", "setting": "Sus scrofa; duration: 42 days, Not specified, no effects", "result": 5, "unit": "mg/kg-day"}
    ]},
    {"smiles": "C=C(/C=C\\C[C@@H](O)[C@@H](O)[C@H](O)C/C=C/C=C\\[C@@H](O)C[C@@H]1O[C@H](C[C@@H](O)[C@H](O)C[C@H]2O[C@H]([C@H](O)[C@H](O)CC[C@H](O)/C=C/[C@H](C)[C@@H](O)C[C@]3(O)O[C@H](C[C@@H](O)CCCCCCC[C@@]45C[C@@H](C)C[C@@](C)(O4)[C@@H](C[C@@H](C)CCCCC[C@@H](O)[C@H](O)[C@H](O)[C@@H](O)[C@H](O)[C@H]4O[C@H](C[C@H](O)[C@H](O)/C(C)=C/[C@H](O)C[C@@H](C)[C@H](O)C(=O)N/C=C/C(=O)NCCCO)[C@H](O)[C@@H](O)[C@@H]4O)O5)[C@H](O)[C@@H](O)[C@H]3O)C[C@@H](O)[C@@H]2O)[C@@H](O)[C@H](O)[C@H]1O)CC[C@H](O)[C@@H](O)[C@H](O)[C@H](C)C[C@H]1O[C@H](/C=C\\[C@@H](O)[C@H](O)C[C@@H]2C[C@@H]3C[C@H](O2)[C@@H](CC[C@H]2O[C@H](CN)C[C@H]2O)O3)[C@@H](O)[C@H](O)[C@H]1O", "note": "[Palytoxin]", "values": [
      {"measurement": "LOAEL", "setting": "Mus musculus; acute, oral, gavage, M, ICR, clinical signs", "result": 0.2, "unit": "mg/kg-day"}
    ]},
    {"smiles": "CN/C(=N\\[N+](=O)[O-])NCc1cnc(Cl)s1", "note": "[Clothianidin]", "values": [
      {"measurement": "LD50", "setting": "Apis mellifera; dermal", "result": "0.0275 µg/piece and 0.0258 µg/piece"},
      {"measurement": "LD50", "setting": "Apis mellifera; duration: 48 hours, dermal", "result": 0.0275, "unit": "µg/piece"},
      {"measurement": "LD50", "setting": "Apis mellifera; duration: 48 hours, oral, unspecified", "result": 0.00379, "unit": "µg/piece"},
      {"measurement": "LD50", "setting": "Apis mellifera; oral, unspecified", "result": 0.00379, "unit": "µg/piece"}
    ]},
    {"smiles": "CCCCCCC(C=O)=Cc1ccccc1", "note": "[2-(Phenylmethylene)octanal]", "values": [
      {"measurement": "LC50", "setting": "[1]; acute, mortality", "result": 0.2, "unit": "µg/mL"},
      {"measurement": "NOAEL", "setting": "Rattus norvegicus; chronic, duration: 14 weeks, oral, diet, M/F, organ weight", "result": 30, "unit": "mg/kg-day"}
    ]},
    {"smiles": "[Fe+2]", "note": "[Fe +2 ion]", "values": [
      {"measurement": "NOAEL", "setting": "Mus musculus; developmental, development", "result": 380, "unit": "mg/kg-day"},
      {"measurement": "NOAEL", "setting": "Rattus norvegicus; developmental, development", "result": 380, "unit": "mg/kg-day"}
    ]},
    {"smiles": "CC(C)[C@H]1OC(=O)[C@H](Cc2ccccc2)N(C)C(=O)[C@@H](C(C)C)OC(=O)[C@H](Cc2ccccc2)N(C)C(=O)[C@@H](C(C)C)OC(=O)[C@H](Cc2ccccc2)N(C)C1=O", "note": "[Beauvericin]", "values": [
      {"measurement": "NOAEL", "setting": "Gallus gallus; repeat dose other", "result": "1.22 mg/kg-day and 0.536 mg/kg-day"},
      {"measurement": "NOAEL", "setting": "Meleagris sp.; not reported", "result": 136, "unit": "µg/kg-day"}
    ]},
    {"smiles": "CC(=O)CCc1ccc(O)cc1", "note": "[4-(4-Hydroxyphenyl)butan-2-one]", "values": [
      {"measurement": "NOAEL", "setting": "[1]; duration: 13 weeks", "result": 280, "unit": "mg/kg-day"},
      {"measurement": "LC50", "setting": "Daphnia magna", "result": 16.9, "unit": "µg/mL"},
      {"measurement": "LC50", "setting": "Pontoscolex corethrurus", "result": 248, "unit": "mg/kg"}
    ]},
    {"smiles": "Cl.Cl.[Cu+2].[NH-][C@@H](CCCCN)C(=O)[O-].[NH-][C@@H](CCCCN)C(=O)[O-]", "note": "[L-Lysine, copper complex]", "values": [
      {"measurement": "NOAEL", "setting": "Homo sapiens; duration: 12 weeks, M, clinical chemistry", "result": 10, "unit": "mg/day"}
    ]},
    {"smiles": "CC(C)(C)c1cc(O)ccc1O", "note": "[tert-Butylhydroquinone]", "values": [
      {"measurement": "NOAEL", "setting": "Canidae", "result": 72, "unit": "mg/kg-day"}
    ]},
    {"smiles": "[Cl-].[K+]", "note": "[Potassium chloride]", "values": [
      {"measurement": "LEL", "setting": "Homo sapiens; duration: 4 weeks, F", "result": 40, "unit": "mg/kg-day"}
    ]},
    {"smiles": "NC1=N[C@H](O)[C@H]2[C@H]3O[C@]4(O)O[C@@H]([C@@H](O)[C@@]2(N1)[C@@H]4O)[C@]3(O)CO", "note": "[Tetrodotoxin]", "values": [
      {"measurement": "LEL", "setting": "Mus musculus; acute, injection, intraperitoneal, no effects", "result": 0.025, "unit": "mg/kg-day"},
      {"measurement": "NOAEL", "setting": "Mus musculus; acute, oral, other", "result": 0.075, "unit": "mg/kg-day"}
    ]},
    {"smiles": "[Cl-].[Mn+2].[Mn+2].[OH-].[OH-].[OH-]", "note": "[Manganese chloride hydroxide (Mn2Cl(OH)3)]", "values": [
      {"measurement": "LEL", "setting": "Gallus gallus; duration: 35 days, oral, diet", "result": 1920, "unit": "mg/kg-day"}
    ]},
    {"smiles": "C[N+](C)(C)CC(=O)[O-]", "note": "[Betaine]", "values": [
      {"measurement": "LEL", "setting": "Homo sapiens; duration: 3 months", "result": 4000, "unit": "mg/day"},
      {"measurement": "LEL", "setting": "Homo sapiens; duration: 6 months", "result": 4000, "unit": "mg/day"},
      {"measurement": "LEL", "setting": "Sus scrofa; duration: 6 weeks, Large White x Landrace, clinical chemistry", "result": 10000, "unit": "mg/kg-day"}
    ]},
    {"smiles": "CC(=O)OC(C)c1ccccc1", "note": "(racemic) [(+/-)-alpha-Methylbenzyl acetate]", "values": [
      {"measurement": "LC50", "setting": "Pontoscolex corethrurus", "result": 1480, "unit": "mg/kg"}
    ]},
    {"smiles": "CCC(C)c1nccnc1OC", "note": "(stereo unspecified) [3-sec-Butyl-2-methoxypyrazine]", "values": [
      {"measurement": "LC50", "setting": "Daphnia magna", "result": 14, "unit": "µg/mL"},
      {"measurement": "LC50", "setting": "Pontoscolex corethrurus", "result": 235, "unit": "mg/kg"}
    ]},
    {"smiles": "CSCCC(N)C(=O)[O-].O=S(=O)([O-])O.[Zn+2]", "note": "(stereo unspecified)", "values": [
      {"measurement": "LEL", "setting": "Gallus gallus; duration: 35 days, M, Chicken", "result": 120, "unit": "mg/kg-day"}
    ]},
    {"smiles": "CC12CCC(CC1)C(C)(C)O2", "note": "[1,8-Cineol]", "values": [
      {"measurement": "NOAEL", "setting": "Mus musculus; short-term, duration: 28 days, oral, capsule, M/F, other", "result": 562, "unit": "mg/kg-day"}
    ]},
    {"smiles": "O=C(O)Cn1cncn1", "note": "[1,2,4-Triazole-1-acetic acid]", "values": [
      {"measurement": "NOAEL", "setting": "Oryctolagus sp.", "result": 100, "unit": "mg/kg-day"},
      {"measurement": "NOAEL", "setting": "Rattus norvegicus; reproduction developmental, body weight", "result": 100, "unit": "mg/kg-day"}
    ]},
    {"smiles": "CCOCCC(OCC)OCC", "note": "[1,1,3-Triethoxypropane]", "values": [
      {"measurement": "LOAEL", "setting": "[1]; repeat dose other", "result": 9.5, "unit": "mg/kg-day"},
      {"measurement": "LOAEL", "setting": "Rattus norvegicus; subchronic, M, hematological", "result": 69, "unit": "mg/kg-day"}
    ]},
    {"smiles": "Cc1oc2ccccc2c1C", "note": "[Benzofuran, 2,3-dimethyl-]", "values": [
      {"measurement": "NOAEL", "setting": "[1]; duration: 90 days", "result": 0.6, "unit": "mg/kg-day"},
      {"measurement": "NOAEL", "setting": "Rattus norvegicus; subchronic, duration: 90 days, oral", "result": 0.6, "unit": "mg/kg-day"}
    ]},
    {"smiles": "Cl.N[C@@H](C=O)[C@@H](O)[C@H](O)[C@H](O)CO", "note": "[Glucosamine hydrochloride]", "values": [
      {"measurement": "NOAEL", "setting": "Rattus norvegicus; chronic, duration: 52 weeks", "result": 2130, "unit": "mg/kg-day"}
    ]},
    {"smiles": "CCCCCC1C(=O)CCC1CC(=O)OC", "note": "(stereo unspecified) [Methyl dihydrojasmonate]", "values": [
      {"measurement": "NOAEL", "setting": "Rattus norvegicus; subchronic, duration: 90 days, oral, diet, M/F, Sprague-Dawley, no effects", "result": 100, "unit": "mg/kg-day"}
    ]},
    {"smiles": "C[C@H]1O[C@H](O[C@H]2[C@H](O)[C@@H](O)[C@@H](O[C@@H]([C@H](O)[C@@H](O)C=O)[C@H](O)CO)O[C@@H]2CO)[C@H](O)[C@@H](O)[C@@H]1N[C@H]1C=C(CO)[C@@H](O)[C@H](O)[C@H]1O", "note": "[Acarbose]", "values": [
      {"measurement": "LEL", "setting": "Bovidae", "result": 350, "unit": "mg/kg-day"}
    ]}
  ]
}
